This is an account of results in patent publication US20100291230A1 (priority 2006, published 2010).

“And” between values parts separate entries of the source, which are not always exact repeats. Equal entries are not always repeated.

Holding throughout (conditions): in vivo
One assay deals with Meloidogyne javanica.
Assay [1] has as its system nematode inoculum (eggs and larvae) in soil. Details: species or system Meloidogyne javanica.
The subject of assay [2] is root-knot nematodes Meloidogyne javanica.

As for `N[C@@H](CC(=O)O)C(=O)O` [Aspartic acid], in the assay on Meloidogyne javanica, the “reduction of galling infection” value is reported as “most effective”. As for `N[C@@H](CS)C(=O)O` [Cysteine], the “reduction of galling infection” value with Meloidogyne javanica is reported as “most effective”.

Take `NCCCC[C@H](N)C(=O)O` [Lysine]: the “reduction of galling infection” value in the assay on Meloidogyne javanica is on record as “most effective”. In the case of `CBr` [Methyl Bromide], in assay [1], the “control of nematode infection in the roots” value is on record as “highly effective in controlling nematode infection in the roots”. Take `O=[PH](O)O` [phosphite, H3PO3]: the “galling incidence and galling index (nematode control)” value with Meloidogyne javanica is given as “higher efficacy in controlling nematodes as compared with urea”.

Consider `OP(O)O` [phosphorous acid], for which the galling incidence in assay [2] was 20% and 10%.
